Data: patent publication US9302999B2, “Substituted triazoles as herbicides” (E. I. DU PONT DE NEMOURS AND COMPANY, priority 2012, dated 2016)

Experiments:
Format in all cases: in vivo
[1] = system: wheat (Triticum aestivum); assay: Test A pre-/postemergence: wheat; conditions: for Wheat plant response rating: Postemergence; for Plant response rating, Wheat: Preemergence
How it was run: (§1)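 Visual 0–100 injury ratings (0 no effect, 100 complete control) taken about ten days after treatment, relative to untreated controls. Preemergence treatment was a directed soil spray; postemergence plants were 2–10 cm tall at one- to two-leaf stage. Soil: loam/sand blend.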

corn (Zea mays) = assay: Test A pre-/postemergence: corn; conditions: for Corn plant response rating: Postemergence; for Plant response rating, Corn: Preemergence
How it was run: as §1

[2] = system: morningglory (Ipomoea spp.); assay: Test A pre-/postemergence: morningglory; conditions: for Morningglory plant response rating: Postemergence; for Plant response rating, Morningglory: Preemergence
How it was run: as §1

rice (Oryza sativa) = assay: Test C flooded paddy test: rice; conditions: scale 0 to 100 (0 no effect, 100 complete control)
How it was run: (§2)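 Plants were grown to the 2-leaf stage, pots flooded to 3 cm above soil, and test compounds applied directly to the paddy water, with that depth held throughout. After 13 to 15 days in a greenhouse, injury was visually rated against controls on a 0 (no effect) to 100 (complete control) scale.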

[3] = system: ducksalad (Heteranthera limosa); assay: Test C flooded paddy test: ducksalad; conditions: scale 0 to 100 (0 no effect, 100 complete control)
How it was run: as §2

[4] = system: barnyardgrass (Echinochloa crus-galli); assay: Test A pre-/postemergence: barnyardgrass; conditions: for Barnyardgrass plant response rating: Postemergence; for Plant response rating, Barnyardgrass: Preemergence
How it was run: as §1

[5] = system: pigweed (Amaranthus retroflexus); assay: Test A pre-/postemergence: pigweed; conditions: for Pigweed plant response rating: Postemergence; for Plant response rating, Pigweed: Preemergence
How it was run: as §1

[6] = system: velvetleaf (Abutilon theophrasti); assay: Test A pre-/postemergence: velvetleaf; conditions: for Velvetleaf plant response rating: Postemergence; for Plant response rating, Velvetleaf: Preemergence
How it was run: as §1

[7] = system: barnyardgrass (Echinochloa crus-galli); assay: Test C flooded paddy test: barnyardgrass; conditions: scale 0 to 100 (0 no effect, 100 complete control)
How it was run: as §2

[8] = system: crabgrass, large (large crabgrass, Digitaria sanguinalis); assay: Test A pre-/postemergence: crabgrass, large; conditions: for Crabgrass, Large plant response rating: Postemergence; for Plant response rating, Crabgrass, Large: Preemergence
How it was run: as §1

[9] = system: foxtail, giant (giant foxtail, Setaria faberii); assay: Test A pre-/postemergence: foxtail, giant; conditions: for Foxtail, Giant plant response rating: Postemergence; for Plant response rating, Foxtail, Giant: Preemergence
How it was run: as §1

[10] = system: sedge, umbrella (small-flower umbrella sedge, Cyperus difformis); assay: Test C flooded paddy test: sedge, umbrella; conditions: scale 0 to 100 (0 no effect, 100 complete control)
How it was run: as §2

[11] = 125 g ai/ha, 0 to 100 scale, 0 is no effect, 100 is complete control
[12] = 500 g ai/ha, visual rating on 0 to 100 scale (0 no effect, 100 complete control), approximately ten days
[13] = 125 g ai/ha, 0 to 100 scale (0 no effect, 100 complete control)
[14] = 500 g ai/ha, 0 to 100 scale, 0 is no effect, 100 is complete control
[15] = Flood (flooded paddy test), 62 g ai/ha, visual rating after 13 to 15 days
[16] = Flood (flooded paddy test), 125 g ai/ha, visual rating after 13 to 15 days
[17] = Flood (flooded paddy test), 250 g ai/ha, visual rating after 13 to 15 days

## Cc1nn(-c2cccc(Cl)c2)nc1C(=O)c1cccc(C(F)(F)F)c1 [Compound 76]
[1]; [11]
  Wheat plant response rating: 0
[1]; [12]
  Wheat plant response rating: 20
[1]; [13]
  Plant response rating, Wheat: 0
[1]; [14]
  Plant response rating, Wheat: 0
Corn (Zea mays); [11]
  Corn plant response rating: 10
Corn (Zea mays); [12]
  Corn plant response rating: 20
Corn (Zea mays); [13]
  Plant response rating, Corn: 0
Corn (Zea mays); [14]
  Plant response rating, Corn: 0
[2]; [11]
  Morningglory plant response rating: 10
[2]; [12]
  Morningglory plant response rating: 20
[2]; [13]
  Plant response rating, Morningglory: 0
[2]; [14]
  Plant response rating, Morningglory: 0
Rice (Oryza sativa); [15]
  Plant response rating, Rice: 0
Rice (Oryza sativa); [16]
  Plant response rating, Rice: 0
Rice (Oryza sativa); [17]
  Plant response rating, Rice: 0
Rice (Oryza sativa); Flood, 31 g ai/ha
  Plant response rating, Rice: 0
[3]; [15]
  Plant response rating, Ducksalad: 0
[3]; [16]
  Plant response rating, Ducksalad: 0
[3]; [17]
  Plant response rating, Ducksalad: 0
[3]; Flood, 31 g ai/ha
  Plant response rating, Ducksalad: 0
[4]; [11]
  Barnyardgrass plant response rating: 0
[4]; [12]
  Barnyardgrass plant response rating: 20
[4]; [13]
  Plant response rating, Barnyardgrass: 0
[4]; [14]
  Plant response rating, Barnyardgrass: 0
[5]; [11]
  Pigweed plant response rating: 50
[5]; [12]
  Pigweed plant response rating: 60
[5]; [13]
  Plant response rating, Pigweed: 0
[5]; [14]
  Plant response rating, Pigweed: 20
[6]; [11]
  Velvetleaf plant response rating: 0
[6]; [12]
  Velvetleaf plant response rating: 10
[6]; [13]
  Plant response rating, Velvetleaf: 0
[6]; [14]
  Plant response rating, Velvetleaf: 0
[7]; [15]
  Plant response rating, Barnyardgrass: 0
[7]; [16]
  Plant response rating, Barnyardgrass: 0
[7]; [17]
  Plant response rating, Barnyardgrass: 0
[7]; Flood, 31 g ai/ha
  Plant response rating, Barnyardgrass: 0
[8]; [11]
  Crabgrass, Large plant response rating: 10
[8]; [12]
  Crabgrass, Large plant response rating: 30
[8]; [13]
  Plant response rating, Crabgrass, Large: 10
[8]; [14]
  Plant response rating, Crabgrass, Large: 40
[9]; [11]
  Foxtail, Giant plant response rating: 10
[9]; [12]
  Foxtail, Giant plant response rating: 20
[9]; [13]
  Plant response rating, Foxtail, Giant: 10
[9]; [14]
  Plant response rating, Foxtail, Giant: 80
[10]; [15]
  Plant response rating, Sedge, Umbrella: 0
[10]; [16]
  Plant response rating, Sedge, Umbrella: 0
[10]; [17]
  Plant response rating, Sedge, Umbrella: 0
[10]; Flood, 31 g ai/ha
  Plant response rating, Sedge, Umbrella: 0

## Cc1nn(-c2ccc(C(F)(F)F)cc2)nc1Cn1ccc(C(F)(F)C(F)(F)F)n1 [Compound 12]
[1]; [11]
  Wheat plant response rating: 10
[1]; [12]
  Wheat plant response rating: 30
[1]; [13]
  Plant response rating, Wheat: 0
[1]; [14]
  Plant response rating, Wheat: 0
Corn (Zea mays); [11]
  Corn plant response rating: 20
Corn (Zea mays); [12]
  Corn plant response rating: 30
Corn (Zea mays); [13]
  Plant response rating, Corn: 0
Corn (Zea mays); [14]
  Plant response rating, Corn: 10
[2]; [11]
  Morningglory plant response rating: 70
[2]; [12]
  Morningglory plant response rating: 100
[2]; [13]
  Plant response rating, Morningglory: 10
[2]; [14]
  Plant response rating, Morningglory: 40
Rice (Oryza sativa); [15]
  Plant response rating, Rice: 0
Rice (Oryza sativa); [17]
  Plant response rating, Rice: 25
[3]; [15]
  Plant response rating, Ducksalad: 60
[3]; [17]
  Plant response rating, Ducksalad: 70
[4]; [11]
  Barnyardgrass plant response rating: 30
[4]; [12]
  Barnyardgrass plant response rating: 80
[4]; [13]
  Plant response rating, Barnyardgrass: 30
[4]; [14]
  Plant response rating, Barnyardgrass: 80
[5]; [11]
  Pigweed plant response rating: 100
[5]; [12]
  Pigweed plant response rating: 100
[5]; [13]
  Plant response rating, Pigweed: 80
[5]; [14]
  Plant response rating, Pigweed: 100
[6]; [11]
  Velvetleaf plant response rating: 70
[6]; [12]
  Velvetleaf plant response rating: 100
[6]; [13]
  Plant response rating, Velvetleaf: 60
[6]; [14]
  Plant response rating, Velvetleaf: 70
[7]; [15]
  Plant response rating, Barnyardgrass: 40
[7]; [17]
  Plant response rating, Barnyardgrass: 60
[8]; [11]
  Crabgrass, Large plant response rating: 50
[8]; [12]
  Crabgrass, Large plant response rating: 90
[8]; [13]
  Plant response rating, Crabgrass, Large: 90
[8]; [14]
  Plant response rating, Crabgrass, Large: 100
[9]; [11]
  Foxtail, Giant plant response rating: 50
[9]; [12]
  Foxtail, Giant plant response rating: 70
[9]; [13]
  Plant response rating, Foxtail, Giant: 80
[9]; [14]
  Plant response rating, Foxtail, Giant: 100
[10]; [15]
  Plant response rating, Sedge, Umbrella: 50
[10]; [17]
  Plant response rating, Sedge, Umbrella: 80

## Cc1nn(-c2ccc(C(F)(F)F)cc2)nc1Cc1cnn(CC(F)(F)F)c1 [Compound 51]
[1]; [11]
  Wheat plant response rating: 0
[1]; [12]
  Wheat plant response rating: 0
[1]; [13]
  Plant response rating, Wheat: 0
[1]; [14]
  Plant response rating, Wheat: 0
Corn (Zea mays); [11]
  Corn plant response rating: 0
Corn (Zea mays); [12]
  Corn plant response rating: 10
Corn (Zea mays); [13]
  Plant response rating, Corn: 0
Corn (Zea mays); [14]
  Plant response rating, Corn: 0
[2]; [11]
  Morningglory plant response rating: 0
[2]; [12]
  Morningglory plant response rating: 10
[2]; [13]
  Plant response rating, Morningglory: 0
[2]; [14]
  Plant response rating, Morningglory: 0
Rice (Oryza sativa); [15]
  Plant response rating, Rice: 0
Rice (Oryza sativa); [17]
  Plant response rating, Rice: 0
[3]; [15]
  Plant response rating, Ducksalad: 0
[3]; [17]
  Plant response rating, Ducksalad: 0
[4]; [11]
  Barnyardgrass plant response rating: 0
[4]; [12]
  Barnyardgrass plant response rating: 10
[4]; [13]
  Plant response rating, Barnyardgrass: 0
[4]; [14]
  Plant response rating, Barnyardgrass: 0
[5]; [11]
  Pigweed plant response rating: 10
[5]; [12]
  Pigweed plant response rating: 60
[5]; [13]
  Plant response rating, Pigweed: 0
[5]; [14]
  Plant response rating, Pigweed: 0
[6]; [11]
  Velvetleaf plant response rating: 0
[6]; [12]
  Velvetleaf plant response rating: 10
[6]; [13]
  Plant response rating, Velvetleaf: 0
[6]; [14]
  Plant response rating, Velvetleaf: 0
[7]; [15]
  Plant response rating, Barnyardgrass: 0
[7]; [17]
  Plant response rating, Barnyardgrass: 0
[8]; [11]
  Crabgrass, Large plant response rating: 0
[8]; [12]
  Crabgrass, Large plant response rating: 10
[8]; [13]
  Plant response rating, Crabgrass, Large: 0
[8]; [14]
  Plant response rating, Crabgrass, Large: 0
[9]; [11]
  Foxtail, Giant plant response rating: 0
[9]; [12]
  Foxtail, Giant plant response rating: 10
[9]; [13]
  Plant response rating, Foxtail, Giant: 0
[9]; [14]
  Plant response rating, Foxtail, Giant: 10
[10]; [15]
  Plant response rating, Sedge, Umbrella: 0
[10]; [17]
  Plant response rating, Sedge, Umbrella: 0
